Reference: patent EP0464022B1, “INSULINOTROPIC HORMONE” (THE GENERAL HOSPITAL CORPORATION, priority 1989, dated 2000)

Assays:
[1] = system: insulinoma cell line RIN 1046-38; assay: cAMP formation in insulinoma cell line; type: cell-based, rat; details: for effects on the formation of cAMP: 5 nM and 50 pM; for effect on cAMP levels: 0.5 µM
Method: Cells were incubated for 10 minutes in the presence of 0, 10^-11, 10^-9, or 10^-7M peptides.

RINS-38 insulinoma cells = assay: Cellular cAMP levels (Table 2); type: cell-based, rat; set-up: cAMP: unit not given here; details: for stimulation of cAMP levels: even at 10^-11M; for cAMP: 10 minutes
Method: Cells were grown as described in Example 1, in […] culture dishes. Varying amounts of glucagon-like peptides were added to culture wells in triplicate. After permitting incubation for 10 minutes, the total cell media was examined for cAMP, and the concentration of cAMP was determined. Twenty microliters from each culture well was assayed.

[2] = Stability in culture medium (HPLC and radioimmunoassay); type: in vitro ADME; details: 24 hr; conditioned medium containing 01% bovine serum albumin
Method: To assess the stability of the […] peptide in the experimental conditions, GLP-1 (1-37) was incubated for 24 hr in culture medium alone or in medium supplemented with either 0.1% bovine serum albumin or 10% fetal bovine serum. Aliquots of media were analyzed by high-pressure liquid chromatography and radioimmunoassay.

rat pancreas = assay: Pancreatic perfusion assay of insulinotropic activity (isolated perfused rat pancreas, insulin radioimmunoassay); type: in vivo
Source text: The insulinotropic property of a compound may be determined by providing that compound to animal cells, or injecting that compound into animals and monitoring the release of immunoreactive insulin (IRI) into the media or circulatory system of the animal, respectively. The presence of IRI is detected through the use of a radioimmunoassay which can specifically detect insulin. Although any radioimmunoassay capable of detecting the presence of IRI may be employed, It is preferable to use a modification of the assay method of Albano, J.D.M., et al., (Acta Endocrinol. 70:487-509 (1972)). In this modification, a phosphate/albumin buffer with a pH of 7.4 was employed. The incubation was prepared with the consecutive condition of 500 µl of phosphate buffer, 50 µl of perfusate sample or rat insulin standard in perfusate, 100 µl of anti-insulin antiserum (Wellcome Laboratories; 1:40,000 dilution), and 100 µl of [^125I] insulin, giving a total volume of 750 µl in a 10 x 75-mm disposable glass tube. After incubation for 2-3 days at 4°C, free insulin was separated from antibody-bound insulin by charcoal separation. The assay sensitivity was 1-2 µU/ml.
The insulinotropic property of a compound may also be determined by pancreatic infusion. The in situ isolated perfused rat pancreas preparation was a modification of the method of Penhos, J.C., et al. (Diabetes 18:733-738 (1969)). In accordance with such a method, fasted rats (preferably male Charles River strain albino rats), weighing 350-600 g, are anesthetized with an intraperitoneal injection of Amytal Sodium (Eli Lilly and Co., 160 ng/kg). Renal, adrenal, gastric, and lower colonic blood vessels are ligated. The entire intestine is resected except for about four cm of duodenum and the descending colon and rectum. […] The perfusate is preferably a modified Krebs-Ringer bicarbonate buffer with 4% dextran T70 and 0.2% bovine serum albumin (fraction V), and is preferably bubbled with 95% O2 and 5% CO2. A nonpulsatile flow, four-channel roller-bearing pump (Buchler polystatic, Buchler Instruments Division, Nuclear-Chicago Corp.) is preferably used, and a switch from one perfusate source to another is preferably accomplished by switching a three-way stopcock.
Isolated rat pancreas was prepared according to the method of Weir, G.C., et al., (J. Clin. Invest. 54:1403-1412 (1974)), and Penkos, J.C., et al. (Diabetes 18:733-738 (1969)). The perfusate contained bicarbonate buffer (pH 7.4) and 120 mg/dl glucose, 4% dextran T-70, and 0.2% bovine serum albumin, and was equilibrated with 95% oxygen and 5% carbon dioxide. The first 20 minutes of each perfusion was an equilibrium period. After this initial period, aliquots of perfusate were removed every 2-4 min for additional 20 min, thus allowing the system to equilibrate for a total of 40 min. The perfusion, including any added insulinotropic peptide, was for 6 min and samples were collected at 1-min intervals. When more than one perfusion was to be performed, the peptide perfusions were followed by equilibration periods of 20 min, during which four samples 5 min apart were collected. […] Again, samples 1 min apart were collected. The entire perfusion time was between 70 and 85 mm.
In each aliquot of perfusate obtained, insulin was determined by radioimmunoassay.

[3] = system: Rat insulinoma cells of cell line RIN-38; assay: mRNA levels by Northern hybridization in insulinoma cells; type: cell-based; details: peptide 10^-7M; 25 mM glucose
Method: The cells were maintained in DMEM (Gibco) at a glucose concentration of 4,500 mg/L and supplemented with 10% heat-inactivated fetal bovine serum (Gibco), 100 U/ml of penicillin and 100 µg/ml of streptomycin. Incubations were carried out at 37°C in 95% air:5% CO2. Cells grown in the above manner were washed and resuspended in DMEM (Gibco) containing 0.1% bovine serum albumin and 25 mM glucose. […] In all cases, the concentration of peptides was 10^-7M. Incubations were for six hours.
Messenger RNAs specific for insulin, actin, or angiotensinogen were identified by Northern hybridization as follows: cellular RNA was extracted from solid tumors and cells by homogenization in guanidine thiocyanate and sedimentation through a cesium chloride cushion. Poly A^+ RNA was isolated by oligo dT cellulose chromatography (Aviv, H., et al., Proc. Natl. Acad. Sci., USA 69:1408-1412 (1972)). Twenty micrograms of total RNA from each sample were fractionated by size on a 1.4% agarose gel after denaturation in glyoxal, followed by electrotransfer to a nylon membrane (Nytran; Schleicher and Schuell). […] The relative amounts of the specific mRNA were determined by microdensitometry.

## GLP-1-(1-36)-NH2: GLP-1 (1-36 des-gly-arg amide); Peninsula Laboratories
[1]
  effects on the formation of cAMP: negligible
  effect on cAMP levels: increased cAMP levels

## GLP-1 (1-37): GLP-1 polypeptide having all amino acids from 1 (N-terminus) through 37 (C-terminus)
Biological half-life
  biological half-life: 30-50 minutes
RINS-38 insulinoma cells
  stimulation of cAMP levels: neither GLP-1 (1-37) nor GLP-II exhibited such activity
RINS-38 insulinoma cells; peptide 10^-6 M
  cAMP: 170
RINS-38 insulinoma cells; peptide 10^-7 M
  cAMP: 120
RINS-38 insulinoma cells; peptide 10^-8 M
  cAMP: 160
RINS-38 insulinoma cells; peptide 10^-9 M
  cAMP: 100
RINS-38 insulinoma cells; peptide 10^-10 M
  cAMP: 90
RINS-38 insulinoma cells; peptide 10^-11 M
  cAMP: 90
[2]
  stability: cleavage after incubation: a small peak of GLP-1 (7-37) appeared
[1]
  effects on the formation of cAMP: negligible
  effect on cAMP levels: increased cAMP levels
Rat pancreas; 5 x 10^-7M
  increase in serum insulin concentrations: 3.4 fold
Rat pancreas; 5x10^-7M, 0 minutes (before peptide added)
  Insulin Produced: 1,400 picograms/ml
Rat pancreas; 5x10^-7M, 1 minute
  Insulin Produced: 4,700 picograms/ml
Rat pancreas; 5x10^-7M, 2 minutes
  Insulin Produced: 2,900 picograms/ml
Rat pancreas; 5x10^-7M, 3 minutes
  Insulin Produced: 2,200 picograms/ml
Rat pancreas; 5 x 10^-8M
  increase in serum insulin levels: two-fold
Rat pancreas; 5x10^-8M, 0 minutes (before peptide added)
  Insulin Produced: 3,000 picograms/ml
Rat pancreas; 5x10^-8M, 1 minute
  Insulin Produced: 6,000 picograms/ml
Rat pancreas; 5x10^-8M, 2 minutes
  Insulin Produced: 2,000 picograms/ml
Rat pancreas; 5x10^-8M, 3 minutes
  Insulin Produced: 2,000 picograms/ml
Rat pancreas; 5 x 10^-10M
  increase in serum insulin levels: 20%
Rat pancreas; 5x10^-10M, 0 minutes (before peptide added)
  Insulin Produced: 500 picograms/ml
Rat pancreas; 5x10^-10M, 1 minute
  Insulin Produced: 600 picograms/ml
Rat pancreas; 5x10^-10M, 2 minutes
  Insulin Produced: 640 picograms/ml
Rat pancreas; 5x10^-10M, 3 minutes
  Insulin Produced: 430 picograms/ml
Rat pancreas; 5 x 10^-11M
  effect on insulin levels: without effect
Rat pancreas; 5x10^-11M, 0 minutes (before peptide added)
  Insulin Produced: 340 picograms/ml
Rat pancreas; 5x10^-11M, 1 minute
  Insulin Produced: 180 picograms/ml
Rat pancreas; 5x10^-11M, 2 minutes
  Insulin Produced: 230 picograms/ml
Rat pancreas; 5x10^-11M, 3 minutes
  Insulin Produced: 340 picograms/ml
Rat pancreas; 5x10^-12M, 0 minutes (before peptide added)
  Insulin Produced: 50 picograms/ml
Rat pancreas; 5x10^-12M, 1 minute
  Insulin Produced: 50 picograms/ml
Rat pancreas; 5x10^-12M, 2 minutes
  Insulin Produced: 160 picograms/ml
Rat pancreas; 5x10^-12M, 3 minutes
  Insulin Produced: 50 picograms/ml
Rat pancreas; 10^-11 M, five minute perfusion
  insulinotropic activity: inactive
Rat pancreas; even at concentrations as high as 5 X 10^-7M
  insulin-releasing activity: no insulin-releasing activity

## GLP-II: glucagon-like peptide 2 (GLP-2) (HADGSFSDEMNTILDNLAARDFINWLIQTKITD; Glucagon-like peptide 2; UniProt P01275 146-178, looked up)
RINS-38 insulinoma cells
  stimulation of cAMP levels: neither GLP-1 (1-37) nor GLP-II exhibited such activity
[3]
  effect on insulin mRNA levels: no effects
